Here are results for ten compounds from patent US6703216B2, “Methods, compositions and apparatuses for detection of gamma-hydroxybutyric acid (GHB)” (priority 2002, dated 2004).

Data set [1] deals with T1, GHB-DH fusion protein (Cupriavidus necator, UniProt Q59104). The format is biochemical, Ralstonia eutropha. Also noted: made in house; host or cells: E. coli pLysS cells (Novagene), vector pGEX-2T/GHB-DH. As for the experimental part: A number of potential stabilizing agents were tested for their suitability in stabilizing a formulation of a GST fusion protein comprising the R. eutropha SSA reductase. Enzymatic activity of the purified fusion protein was studied after storage in different formulations for 21 days at 4° C. […] A range of concentrations of ammonium sulfate and glycerol were tested. […] GHB-DH may contain bound iron and copper ions (Wolf, 1995), which chelating agents can sequester and thereby denature and/or inactivate the oxidoreductase.
Enzymatic assay for GHB based on formation of NADH. GHB-DH activity was assayed at 23° C. in 1 ml of buffer (97 mM 2-amino-2-methyl-1,3-propanediol (AMPD) adjusted to pH 8.5 with HCl) containing 14 μg purified fusion protein and 1 mM NAD^+ in a cuvette of 1 cm path length at 23° C. (Valentin, 1995). Reaction was initiated by the addition of GHB to 20 mM, and formation of NADH was monitored by the increase in absorbance at 334 nm (FIG. 4A).
Stability of fusion protein. The GHB-DH enzymatic activity of R. eutropha GHB-DH fusion protein was studied after storage for 21 days at 4° C. under various conditions (FIG. 5). Fourteen μg of protein was assayed using the method described in Example 4. Test enzyme solutions included the crude lysate, purified fusion protein at 7 mg/ml in 50 mM NaCl and 30 mM MOPS adjusted to pH 7.4 with NaOH, and purified fusion protein at 7 mg/ml in the same buffer also containing potential stabilizing agents.

Data set [2] addresses purified GHB-DH fusion protein (Cupriavidus necator, UniProt Q59104). The conditions noted are these: for weaker affinity for GHB-DH than GHB: ethanol relative to GHB.
In data set [3] the target is T2, R. eutropha GHB-DH (Cupriavidus necator, UniProt Q59104). The format is biochemical, Ralstonia eutropha. The conditions noted are these: 20 mM GHB in the same concentrations of ethanol. Also noted: made in house; host or cells: E. coli pLysS cells (Novagene), vector pGEX-2T/GHB-DH.
Data set [4] has as its target T1, GHB-DH fusion protein. The format is biochemical, Ralstonia eutropha. Also noted: made in house; host or cells: E. coli pLysS cells (Novagene), vector pGEX-2T/GHB-DH. The source holds these as a separate data set.
In data set [5] the target is T1, GHB-DH fusion protein. As to the kind of experiment: Detection of GHB in human urine on filter paper.
For data set [6] the following is noted: 150-pound person, cited from earlier work.
The target in data set [7] is T2, R. eutropha GHB-DH. As to the kind of experiment: Economical dipstick assay for GHB in alcoholic beverages after evaporation.
The next data set relates to O=C(O)CCCO. As to the kind of experiment: purified protein, by the assay type. The conditions noted are these: other: GHB as substrate, 5 μg fusion protein, pH 8.5, 23° C.
The mark [8] stands for this setting: purified fusion protein 7 mg/ml, 21 days at 4° C.

Where two headings read alike, the source gives them in different places. A value given as a limit tells only on which side of the number the result lay.

Take reduced glutathione: the “effect of agent on enzyme activity during storage” value (shortened to “effect of agent”) is given as “drastically diminished enzyme activity” on GHB-DH fusion protein [1] (setting [8]) and “nearly totally inactivated enzyme activity” at GHB-DH fusion protein [1] (purified fusion protein 7 mg/ml, 21 days at 4° C., listed as reduced GSH).

For the compound `O=C(O)CN(CCN(CC(=O)O)CC(=O)O)CC(=O)O` [EDTA, ethylene diamine tetraacetic acid], the “effect of agent” value on GHB-DH fusion protein [1] (setting [8]) was “nearly totally inactivated enzyme activity”; on GHB-DH fusion protein [1] (purified fusion protein 7 mg/ml, 21 days at 4° C., listed as ethylene diamine tetraacetic acid), “drastically diminished enzyme activity”.

With `N.N.O=S(=O)(O)O` [ammonium sulfate], the “effect of agent” value on GHB-DH fusion protein [1] (setting [8]) was “somewhat deleterious”. Besides, the “enzyme activity lost during storage” value on GHB-DH fusion protein [1] (range of concentrations of ammonium sulfate, 21 days at 4° C.) is recorded as at least 50%.

In the case of `O=C(O)CCCO` [GHB, 4-hydroxy-butanoic acid], the Vmax in data set [2] (GHB as substrate (FIG. 6A)) is 0.049±0.001 A/min/μg; in data set [2] (GHB as substrate, 5 μg fusion protein), 0.049±0.001 Absorbance/min/μg fusion protein. For the same compound, the “color produced on paper” value on R. eutropha GHB-DH [3] was “intense purple”. The “GHB concentration readily detected” value on GHB-DH fusion protein [4] (conjugated filters, assay buffer, 23° C.) is listed as at most 2 mM. In addition, the figures for the color produced result on GHB-DH fusion protein [5] (0.1 mM GHB in human urine) and on GHB-DH fusion protein [5] (0.3 mM GHB in human urine) were “slight but definite purple” and “substantial purple”, respectively. At GHB-DH fusion protein [5] (human urine, dried or not dried, 5 minutes), the “GHB concentration in urine producing color” value is listed as at most 0.1 mM. The “effect in a person” value in data set [6] (1-gram dose) is “low degree of effect”; in data set [6] (2.5-gram dose) it was “coma”. Also, on R. eutropha GHB-DH [7] (20 mM GHB in 25 alcoholic beverages, 2 minutes), the color developed result was “intense purple color”. Also, at R. eutropha GHB-DH [7] (evaporated sample, 2 minutes reaction at 23° C.), the “GHB concentration detected in alcoholic beverages” value is listed as at most 1 mM.

As to oxidized glutathione, the “effect of agent” value is “drastically diminished enzyme activity” on GHB-DH fusion protein [1] (setting [8]) and “nearly totally inactivated enzyme activity” on GHB-DH fusion protein [1] (purified fusion protein 7 mg/ml, 21 days at 4° C., listed as oxidized GSH).

As for `OCC(O)CO` [glycerol], the “effect of agent” value is on record as “retained high degrees of enzyme activity” on GHB-DH fusion protein [1] (5-20% glycerol, 4° C.); “greatest retention” at GHB-DH fusion protein [1] (10% glycerol, 21 days, 4° C.); “deleterious” at GHB-DH fusion protein [1] (50% glycerol at 4° C.).

Take `CCO` [Ethanol, ethanol]: the “weaker affinity for GHB-DH than GHB” value is listed as “about 200 fold” in data set [2] and “approximately 200 fold” in data set [2] (listed as ethanol). Moreover, the color produced entry at GHB-DH fusion protein [4] (all concentrations of ethanol tested) is on record as “little or no color”.

As a reminder, the Km is the concentration of substrate that gives half-maximal velocity. Take “purified GHB-DH fusion protein (Cupriavidus necator)”: the Km in the data set with O=C(O)CCCO is 2190 ± 130 µM.

Turning to `O[C@H](CS)[C@H](O)CS` (racemic) [DTT, dithiothreitol], the “effect of agent” value at GHB-DH fusion protein [1] (setting [8]) is recorded as “nearly completely inactivated enzyme activity”; on GHB-DH fusion protein [1] (purified fusion protein 7 mg/ml, 21 days at 4° C., listed as dithiothreitol) it was “drastically diminished enzyme activity”.

For `OCCS` [BME, 2-mercaptoethanol], the “effect of agent” value on GHB-DH fusion protein [1] (setting [8]) is on record as “nearly completely inactivated enzyme activity”; at GHB-DH fusion protein [1] (purified fusion protein 7 mg/ml, 21 days at 4° C., listed as beta-mercaptoethanol), “drastically diminished enzyme activity”.
